According to patent US8697692B2, “Pyrrolo [3,2-c] pyridine-4-one 2-indolinone protein kinase inhibitors” (Shanghai Hengrui Pharmaceutical Co., Ltd., priority 2006, dated 2014):
pIC50: −log10 of the molar value.

What was measured:
HER-2/ErbB2 kinase = molecular target: T1, HER-2/ErbB2 kinase (Homo sapiens, UniProt P04626); experiment: HER-2 Kinase Assay (ELISA); assay type: biochemical; conditions: 20 μM ATP, 25° C. 60 minutes
T1 construct: purchased Invitrogen corporation #PV3366
Protocol: An enzyme linked immunosorbent assays (ELISA) was conducted to measure the kinase activity of HER-2 in vitro.
a. Wash Buffer (PBS-T Buffer): 1×PBS (137 mM NaCl; 2.7 mM KCl, 4.3 mM Na2HPO4, 1.4 mM KH2PO4, adjust the pH to 7.2) and 0.05% Tween-20.
b. 1% Bovine Serum Albumin (BSA, Calbiochem #136593) in PBS-T.
c. Stop Buffer: 50 mM EDTA, pH 8.0.
d. DELFIA® Europium-labeled Anti-mouse IgG (PerkinElmer Life Sciences #AD0124).
e. DELFIA® Enhancement Solution (PerkinElmer Life Sciences #1244-105).
f. DELFIA® Streptavidin coated, 96-well, yellow plate (PerkinElmer Life Sciences #AAAND-0005).
g. HER-2/ErbB2 kinase (Invitrogen corporation #PV3366).
h. 10 mM ATP solution (Cell signaling technology #9804).
i. FLT3 (Tyr589) Biotinylated Peptide (Cell signaling technology #1305).
j. Phospho-Tyrosine Mouse mAb (P-Tyr-100) (Cell signaling technology #9411).
k. HTScan™ Tyrosine Kinase Buffer (4×)
(Cell signaling technology #9805).
l. 1.25 M DTT (1000×) (Cell signaling technology).
The following protocol was used:
1. Dilute test compound with DMSO to the desired final assay concentration. Add 1 μl test compound for every assay, to the negative control.
2. Dilute 6 μM substrate peptide (Tyr589) 1:1 with dH2O, add 15 μl to every assay.
3. Immediately transfer HER-2 enzyme from −80° C. to ice. Allow enzyme to thaw on ice.
4. Take 4.5 μg HER-2 enzyme to the enzyme tube.
5. Add 10 μl of DTT (1.25 M) to 2.5 ml of 4×HTScan™ Tyrosine Kinase Buffer (240 mM HEPES pH 7.5, 20 mM MgCl2, 20 mM MnCl2, 12 μM Na3VO4) to make DTT/Kinase buffer.
6. Transfer 0.75 ml of DTT/Kinase buffer to each enzyme tube to make 4× reaction cocktail. Add 7.5 μl 4× reaction cocktail to every assay.
7. Add 4 μl ATP (10 mM) to 496 μl dH2O, take 7.5 μl for every assay. Final Assay Conditions for a 30 μl Reaction
Incubate reaction tube at 25° C. for 60 minutes. 9. Add 30 μl/assay stop buffer (50 mM EDTA, pH 8.0) to stop the reaction. 10. Transfer 25 μl of each reaction and 75 μl dH2O/well to a 96-well streptavidin coated plate and incubate, with shaking at room temperature for 60 minutes. 11. Wash three times with 200 μl/well PBS-T buffer. Pat plate on paper towel to remove excess liquid. 12. Dilute primary antibody, Phospho-Tyrosine mAb (P-Tyr-100), 1:1000 in PBS-T buffer with 1% BSA. Add 100 μl diluted primary antibody to each well. 13. Incubate, with shaking at room temperature for 60 minutes. 14. Wash as described above in step 11. 15. Dilute Europium labeled anti-mouse IgG 1:500 in PBS-T buffer with 1% BSA. Add 100 μl diluted antibody to each well. 16. Incubate, with shaking at room temperature for 30 minutes. 17. Wash five times with 200 μl/well PBS-T buffer. Pat plate on paper towel to remove excess liquid. 18. Add 100 μl/well DELFIA® Enhancement Solution. 19. Incubate, with shaking at room temperature for 5 minutes. 20. Detect 615 nm fluorescence emission with appropriate Time-Resolved Plate Reader.
Calculate the inhibition rate: IR (%)=100−100*(X−B)/(N−B)
X=the fluorescence value of the well contained test compound
The IC50 value can be derived from the IRs of compounds at different concentration gradients.

A431 cell = experiment: Cell Proliferation Inhibition EGFR Assay (SRB method); assay type: cell-based, homo sapient; conditions: Homo sapiens, A-431; A431 cells, 72 hours exposure, Sulforhodamine B; read-out: IC50 (A431)
Summary of the method: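 A431 cells grown to ~85% confluence, then exposed 72 hours at 37° C to 6 to 7 serial concentrations of compound in DMEM/F12 + 10% FBS, final DMSO ≤0.5%. Growth measured by TCA fixation and sulforhodamine B staining; IC50 calculated from inhibition rates.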

T1 sequence (P04626 23-1255): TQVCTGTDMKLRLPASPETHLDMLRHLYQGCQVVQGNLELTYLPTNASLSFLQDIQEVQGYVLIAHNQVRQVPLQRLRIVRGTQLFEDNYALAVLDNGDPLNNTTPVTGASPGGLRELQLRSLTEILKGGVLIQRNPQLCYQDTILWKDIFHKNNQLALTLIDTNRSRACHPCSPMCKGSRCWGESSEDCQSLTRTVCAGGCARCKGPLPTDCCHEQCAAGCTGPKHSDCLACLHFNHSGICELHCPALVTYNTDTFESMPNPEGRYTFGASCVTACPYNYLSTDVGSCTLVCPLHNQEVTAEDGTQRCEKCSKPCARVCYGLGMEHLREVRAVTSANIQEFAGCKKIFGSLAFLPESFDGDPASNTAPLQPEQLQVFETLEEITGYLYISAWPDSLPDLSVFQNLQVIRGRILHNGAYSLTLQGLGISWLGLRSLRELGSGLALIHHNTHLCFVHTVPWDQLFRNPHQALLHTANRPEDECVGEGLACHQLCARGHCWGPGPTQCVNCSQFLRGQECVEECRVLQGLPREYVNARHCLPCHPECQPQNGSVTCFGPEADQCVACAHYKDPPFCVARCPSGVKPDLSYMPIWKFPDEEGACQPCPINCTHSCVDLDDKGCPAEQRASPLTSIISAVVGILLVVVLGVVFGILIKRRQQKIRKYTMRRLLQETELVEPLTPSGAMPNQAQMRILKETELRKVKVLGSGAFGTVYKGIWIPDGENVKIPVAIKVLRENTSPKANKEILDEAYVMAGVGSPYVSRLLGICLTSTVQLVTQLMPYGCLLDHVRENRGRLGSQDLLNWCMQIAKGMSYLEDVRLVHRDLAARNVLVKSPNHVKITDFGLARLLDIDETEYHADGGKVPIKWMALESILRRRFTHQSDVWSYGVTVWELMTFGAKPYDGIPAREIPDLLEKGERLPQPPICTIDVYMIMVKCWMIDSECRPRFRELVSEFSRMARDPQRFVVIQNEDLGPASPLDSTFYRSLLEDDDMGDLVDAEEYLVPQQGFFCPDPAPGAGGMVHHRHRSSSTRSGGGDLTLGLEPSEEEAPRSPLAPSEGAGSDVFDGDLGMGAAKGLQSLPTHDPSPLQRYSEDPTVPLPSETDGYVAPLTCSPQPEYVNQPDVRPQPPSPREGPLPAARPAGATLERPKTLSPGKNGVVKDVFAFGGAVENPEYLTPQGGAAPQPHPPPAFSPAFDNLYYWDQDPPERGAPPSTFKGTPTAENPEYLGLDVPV

SMILES | pIC50 (HER-2/ErbB2 kinase) | pIC50 (A431 cell)
Cc1c(/C=C2\C(=O)Nc3cccc(Br)c32)[nH]c2c1C(=O)N(CCN1CCOCC1)CC2 [Example 49, 2-(4-Bromo-2-oxo-1,2-dihydro-indol-3-ylidenemethyl)-3-methyl-5-(2-morpholin-4-yl-ethyl)-1,5,6,7-tetrahydro-pyrrolo[3,2-c]pyridin-4-one] | 4.44 | 
Cc1c(/C=C2\C(=O)Nc3cccc(Br)c32)[nH]c2c1C(=O)N(CCN1CCCC1)CC2 [Example 69, 2-(4-Bromo-2-oxo-1,2-dihydro-indol-3-ylidenemethyl)-3-methyl-5-(2-pyrrolidin-1-yl-ethyl)-1,5,6,7-tetrahydro-pyrrolo[3,2-c]pyridin-4-one] | 6.04 | 6.70
Cc1c(/C=C2\C(=O)Nc3cccc(C4CCNCC4)c32)[nH]c2c1C(=O)N(CCN1CCCC1)CC2 [Example 71, 3-Methyl-2-(2-oxo-4-piperidin-4-yl-1,2-dihydro-indol-3-ylidenemethyl)-5-(2-pyrrolidin-1-yl-ethyl)-1,5,6,7-tetrahydro-pyrrolo[3,2-c]pyridin-4-one] | 5.96 | 6.23

The next compounds have a higher pIC50 (HER-2/ErbB2 kinase) than those just listed; values first:

pIC50 (HER-2/ErbB2 kinase) | pIC50 (A431 cell) | SMILES
6.17 | 6.74 | Cc1c(/C=C2\C(=O)Nc3cccc(-c4cccc(F)c4)c32)[nH]c2c1C(=O)N(CCN1CCCCC1)CC2 [Example 64, 2-[4-(3-Fluoro-phenyl)-2-oxo-1,2-dihydro-indol-3-ylidenemethyl]-3-methyl-5-(2-piperidin-1-yl-ethyl)-1,5,6,7-tetrahydro-pyrrolo[3,2-c]pyridin-4-one]
6.28 | 4.86 | Cc1c(/C=C2\C(=O)Nc3cccc(-c4cccc(Cl)c4F)c32)[nH]c2c1C(=O)N(CCN1CCCC1)CC2 [Example 68, 2-[4-(3-Chloro-2-fluoro-phenyl)-2-oxo-1,2-dihydro-indol-3-ylidenemethyl]-3-methyl-5-(2-pyrrolidin-1-yl-ethyl)-1,5,6,7-tetrahydro-pyrrolo[3,2-e]pyridin-4-one]
